# Measurements reported in patent publication US20130331326A1, “METHOD OF INDUCING HEMATOPOIETIC RECONSTRUCTION” (DUKE UNIVERSITY, priority 2011, published 2013).
# What was measured:
# [1] = tested on: CD45+MECA- BM cells; test: Annexin+ BM hematopoietic cells in mice after 700 cGy TBI; assay type: in vivo, mouse; conditions: systemic EGF x 7 days, day +7, vs saline
# Method: FIGS. 7A-7G. […] (FIG. 7B) Mean percentage of Annexin^+ Tie2Cre;Bak1^−/−;Bax^Fl/−. […] Non-irradiated BM KSL cells reside predominantly in the G0 (white). G1 light gray, G2/S/M=dark gray. *P=0.002 vs TSF for G0 and ̂P=0.002 vs TSF for G2/S/M, respectively (means±SEM, n=3-5/group). […] The majority of non-irradiated cells were in G0 (white). […] The Mann-Whitney test was utilized for all comparisons unless otherwise noted.
# (§1) Cell apoptosis and necrosis were analyzed by flow cytometry according to manufacturer's protocols with Annexin V-FITC and 7-AAD staining (BD, San Jose, Calif.). […] Cells were fixed and permeabilized with Fix Buffer I and Perm Buffer III (BD), and then stained with mouse anti-phospho-AKT-S473 PE (BD) or isotype control. Cell cycle analysis was performed by flow cytometric analysis modified from previous reports (Jordan et al, Exp. Hematol. 24:1347-1355 (1996), Chute et al, Hum. Gene Ther. 11:2515-2528 (2000), Sungartz et al, Blood 119:1308-1309 (2012)). Briefly, cells were fixed and permeabilized with 0.25% Saponin (Calbiochem, La Jolla, Calif.), 2.5% paraformaldehyde, 2% FBS in 1×PBS, and then labeled with Ki67-FITC and 7-AAD (BD). BM lin^− cells from VavCre;EGFR^+/+ or VavCre;EGER^fl/fl were cultured with TSF or TSF+10 μM erlotinib, or TSF following 300 cGy for 72 hours, and then collected for total cell counts and CFCs analysis.
# [2] = tested on: BM KSL cells; test: Annexin V apoptosis assay of irradiated BM KSL cells in culture; assay type: cell-based, mouse; conditions: 72 hours, vs cytokines alone
# Method: as §1
substance,measurement,setting,value
EGF: epidermal growth factor; recombinant EGF (R&D Systems),decreased Annexin+ BM hematopoietic cells,[1],4 fold
same,decreased Annexin+ KSL cells,"[2]; C57B16 BM KSL, 300 cGy, cytokines plus 20 ng/ml EGF",2 fold
same,percentage of Annexin+ cells,"[2]; irradiated BM KSL cells from Tie2Cre;Bak1-/-;BaxFl/- mice, EGF",further decreased
